{"source": "patent US10960018B2", "about": "“Methods and compounds for stimulating read-through of premature termination codons” (The UAB Research Foundation, priority 2016, dated 2021)", "key": {"FRT W1282X cells": {"tested_on": "FRT W1282X cells", "experiment": "Transepithelial chloride conductance assay in FRT W1282X cells", "type": "cell-based, Rat", "conditions": "48 hours; escin 10 μM, VX-809 3 μM, GP-5 10 μM, C1+C2 10 μM", "method": "Stably transfected FRT cells as described herein cells were seeded onto Costar 24-well […] permeable supports at a density of ˜2×10^6 cells/filter and maintained at 37° C. with 5% CO2. Transepithelial resistance was assessed using an epithelial voltmeter to ensure the formation of tight monolayers, as defined by resistance >6 kcm^2. During initial evaluation of agents, cells were treated with compounds (10 μM), vehicle control (0.3% DMSO), or positive control (250 μg/mL G418) for 48 hours before transepithelial conductance (Gt) was assessed; subsequent studies used other concentrations of compounds. Measurements were taken at baseline, after the addition of 20 μM forskolin (FSK, a cAMP agonist that stimulates CFTR activity) and 10 μM CFTRInh-172 (a CFTR-specific inhibitor).\nIndividual assays were performed as described herein.\nAs previously reported in the literature, the combination of CFTR correctors (such as VX-809) and CFTR potentiators (such as VX-770) act synergistically to improve CFTR function. […] Compounds alone or in the indicated combination were pre-incubated with FRT W1282X cells for 48 hours. During the assay the baseline conductance (Gt) was initially determined prior to the acute addition of forskolin (20 μM) and VX-770 (10 μM) to stimulate CFTR activity; the CFTR inhibitor, CFTRInh-172 (10 μM), was added to inhibit CFTR activity at the end of the assay. Enhancement of PTC read-through by the compounds of the present disclosure was determined by an increase in CFTR conductance. CFTR conductance also indicated the CFTR was functional as a result of the read-through of the PTC.\nCompounds alone or in the indicated combination were pre-incubated with FRT G542X cells for 48 hours. […] Enhancement of PTC read-through by the compounds of the present disclosure was determined by an increase in CFTR conductance. CFTR conductance also indicated the CFTR was functional as a result of the read-through of the PTC.\nIt has been reported that aminoglycosides interfere with the action read-through stimulating compound. […] CFTR conductance also indicated the CFTR was functional as a result of the read-through of the PTC.\nStimulation of CFTR activity was determined by an increase in CFTR conductance. […] During the assay the baseline conductance (Gt) was initially determined prior to the acute addition of forskolin (20 μM) and GP-5 (10 μM) to stimulate CFTR activity; the CFTR inhibitor, […] (10 μM), was added to inhibit CFTR activity at the end of the assay.\nThe effect of the read-through stimulating compounds of the present disclosure in combination with the CFTR corrector VX-809 was further examined in FRT cells with the G542X, Y122X and W1282X mutations. […] CFTR conductance also indicated the CFTR was functional as a result of the read-through of the PTC."}, "FRT W1282X^HRP cells": {"tested_on": "FRT W1282X^HRP cells", "experiment": "HRP CFTR expression assay, W1282X", "type": "cell-based, Rat", "conditions": "48 hours; escin 10 μM, VX-809 3 μM", "method": "To measure cell surface expression of CFTR, FRT cells expressing the fusion protein of G542X CFTR and HRP were treated with 10 μM of lead compounds for 48 hours at 37° C. and 5% CO2. Holding DMSO concentration at 0.3%, FRT cells were washed 4 times in PBS supplemented with 1 mM MgCl2 and 0.1 mM CaCl2 and then incubated with the HRP substrate (Fisher, #PI-34096, 15 μl/well) at room temperature for 10 minutes. The luminescent HRP signal was analyzed via a Synergy NEO microplate reader (BioTek Instruments).\nThe effect of the read-through stimulating compounds of the present disclosure in combination with the CFTR corrector VX-809 was further examined in FRT cells with the G542X, Y122X and W1282X mutations. Enhancement of PTC read-through by the compounds of the present disclosure was determined by an increase in CFTR conductance (FIGS. 13A-13C) or an increase in CFTR protein expression at the cell surface (FIGS. 14A-14C). CFTR conductance also indicated the CFTR was functional as a result of the read-through of the PTC."}}}
{"molecule": "Cc1ccc(NC(=O)C2(c3ccc4c(c3)OC(F)(F)O4)CC2)nc1-c1cccc(C(=O)O)c1", "note": "[VX-809]", "values": [{"measurement": "CFTR stimulation (conductance) in the presence of forskolin and GP-5", "setting": "FRT W1282X cells", "value": "varying stimulatory effects"}, {"measurement": "CFTR protein expression at the cell surface", "setting": "FRT W1282X^HRP cells", "value": "significant stimulatory effects"}]}
